Results: paper PMC6533151 (Neuron, 2019)
Where “and” joins values, the source holds several entries; their conditions need not be identical. Identical values can stand only once. Counter-ions that a name gives are not always drawn. Like-named read-outs stand apart in the source and are kept apart here.

Assays:
[1] = test system: GRABDA1m; details: 50 μM DA
[2] = test system: GRABNE1h; experiment: GRABNE1h fluorescence in acute mouse hippocampal slices; format: cell-based, human
[3] = test system: GRABNE1m; details: cultured hippocampal slices; puff application in ACSF
[4] = molecular target: T1, GRABNE1m (Homo sapiens, UniProt P08913); format: cell-based; details: cultured neurons
[5] = test system: GRABNE sensors; experiment: Ligand specificity and dynamic range of GRABNE sensors; format: cell-based, human; details: for fluorescence response of the sensors to the compound: HEK293T cells, Fig. 2G
[6] = test system: NE dynamics in the lateral hypothalamus (GRABNE1m fluorescence); format: in vivo, mouse; details: i.p.; atomoxetine 3 mg/kg, yohimbine 2 mg/kg, GBR 12909 10 mg/kg, sulpiride 50 mg/kg
[7] = test system: optogenetically evoked NE release in the LC (GRABNE1m fluorescence); format: in vivo, mouse; details: i.p.; desipramine 10 mg/kg, yohimbine 2 mg/kg
[8] = test system: looming-evoked NE release (GRABNE1m fluorescence); experiment: Looming-evoked GRABNE1m fluorescence in optic tectum of zebrafish; format: in vivo; details: for effect on looming-induced increase in GRABNE1m fluorescence: bath application 50 μM
[9] = test system: GRABNEmut; experiment: Bath application to zebrafish expressing GRABNEmut; format: in vivo; details: 50 μM NE
[10] = test system: GRABNE1m; experiment: Bath application to Tg; format: in vivo, zebrafish
[11] = molecular target: GRABNE1h (Homo sapiens, UniProt P08913, T388K); experiment: Fluorescence response of GRABNE1h expressed in HEK293T cells; format: cell-based
[12] = test system: GRABNEmut; format: cell-based, human; details: cultured hippocampal slices
[13] = test system: GRABNE1h; format: cell-based, human; details: cultured hippocampal slices; puff application in ACSF
[14] = molecular target: T1, GRABNE1m; format: cell-based
[15] = test system: GRABNEmut; experiment: Fluorescence response of GRABNEmut expressed in HEK293T cells; format: cell-based, human; details: 100 μM NE
[16] = test system: GRABNE1m; format: cell-based, human
[17] = test system: GRABNE1h; experiment: Fluorescence response of GRABNE1h expressed in HEK293T cells; format: cell-based, human; details: 10 μM yohimbine
[18] = test system: release of endogenous NE in the LC (GRABNE1m fluorescence); format: cell-based, mouse

Q: Which “fluorescence response to application” value [1] does the source give for `NCCc1ccc(O)c(O)c1` [DA, Dopamine hydrochloride] here?
A: The value was “responded robustly”.

Q: What does the source list for `CNC[C@H](O)c1ccc(O)c(O)c1` [Epi, Epinephrine hydrochloride]?
A: fluorescence response to exogenous application [2]: evoked a fluorescence increase; fluorescence response to exogenous application [3]: generated fluorescence increases; fluorescence response to the compound ([4]; compounds at 10 μM each): responded specifically; fluorescence response of the sensors to the compound [5]: responded

Q: `Fc1ccc(C(OCCN2CCN(CCCc3ccccc3)CC2)c2ccc(F)cc2)cc1` [GBR 12909] was tested. Which “effect on GRABNE1m peak fluorescence during tail suspension” value [6] did it give?
A: The value was “had no effect”.

Q: What about the “effect on time to return to baseline after tail suspension” value (“effect on time to return to baseline” for short) [6] of the same compound?
A: Its value is “had no effect”.

Q: What about the “effect on light-evoked GRABNE1m responses” value [7] of the same compound?
A: The value was “had no effect”.

Q: `Cc1ccc(OCC(O)C(C)NC(C)C)c2c1CCC2.Cl` (stereo not drawn) [ICI 118,551, ICI 118,551 hydrochloride] was tested. Which “effect on looming-induced increase in GRABNE1m fluorescence” value [8] did it give?
A: The value was “unaffected”.

Q: How did the “fluorescence response to exogenous application” value [2] turn out when `NC[C@H](O)c1ccc(O)c(O)c1` [NE, Norepinephrine] was run?
A: The value was “evoked a fluorescence increase”.

Q: And the “fluorescence response to exogenous application” value [3]?
A: Its value is “evoked a robust increase in fluorescence”.

Q: And the “fluorescence response to NE” value [9]?
A: The value was “did not respond”.

Q: And the “fluorescence response to bath application” value ([10]; 50 μM, tectal neuropil, larvae)?
A: Its value is “elicited a robust increase in fluorescence intensity”.

Q: And the “maximum ΔF/F0” value ([11]; 100 μM NE)?
A: Its value is ~ 130%.

Q: And the “mean on time constant after photolysis of NPEC-caged NE” value ([11]; 405-nm uncaging, single exponential fit)?
A: Its value is 137 ms.

Q: And the “average τoff” value ([11]; NE followed by 200 μM yohimbine, line scanning)?
A: Its value is 1890 ms.

Q: What about the “increase in sensitivity to NE compared with GRABNE1m” value ([11]; T6.34K point mutation) of the same compound?
A: The value was 10 fold.

Q: And the “fluorescence response of the sensors to the compound” value [5]?
A: Its value is “responded”.

Q: What about the “peak ΔF/F0 response / dynamic range of the GRABNE sensor family” value ([5]; saturating NE) of the same compound?
A: The value was 230% and ~ 200%.

Q: And the “fluorescence response to exogenous application” value [12]?
A: The value was “no detectable effect”.

Q: And the “fluorescence response to exogenous application” value [13]?
A: Its value is “evoked a robust increase in fluorescence”.

Q: What about the “average τoff” value ([14]; HEK293T cells, NE followed by 200 μM yohimbine, line scanning) of the same compound?
A: Its value is 680 ms.

Q: And the “internalization of GRABNE1m” value ([14]; saturating concentration of NE for 2 h)?
A: The value was “no internalization”.

Q: And the “fluorescence response to NE” value [15]?
A: The value was “does not respond”.

Q: What does the source list for `CNCC[C@@H](Oc1ccccc1C)c1ccccc1` [atomoxetine, Atomoxetine hydrochloride]?
A: effect on GRABNE1m peak fluorescence during tail suspension [6]: had no effect; effect on time to return to baseline after tail suspension [6]: significantly slowed the return of signal to its baseline

Q: With `Brc1c(NC2=NCCN2)ccc2nccnc12` [brimonidine, UK 14,304 tartrate] as the compound, how does the “fluorescence response to exogenous application” value [2] read?
A: Its value is “evoked a fluorescence increase”.

Q: And the “fluorescence response to exogenous application” value [3]?
A: Its value is “generated fluorescence increases”.

Q: What about the “fluorescence response of the sensors to the compound” value [5] of the same compound?
A: Its value is “responded”.

Q: What does the source list for `CNCCCN1c2ccccc2CCc2ccccc21` [desipramine, Desipramine hydrochloride]?
A: effect on basal GRABNE1m fluorescence [7]: slow progressive increase; effect on light-evoked GRABNE1m responses [7]: increase in the magnitude and decay time; effect on decay of looming-induced fluorescence signal ([8]; desipramine 50 μM): slowed the decay of the fluorescence signal

Q: `CCc1cc(Cl)c(OC)c(C(=O)NC[C@@H]2CCCN2CC)c1O` [eticlopiride, Eticlopride hydrochloride] was tested. Which “effect on light-evoked GRABNE1m responses” value [7] did it give?
A: The value was “had no effect”.

Q: With `CCN1CCCC1CNC(=O)c1cc(S(N)(=O)=O)ccc1OC` (stereo not drawn) [sulpiride, Sulpiride] as the compound, how does the “effect on GRABNE1m peak fluorescence during tail suspension” value [6] read?
A: Its value is “had no effect”.

Q: What about the “effect on time to return to baseline” value [6] of the same compound?
A: The value was “had no effect”.

Q: For `COC(=O)[C@@H]1[C@H]2C[C@H]3c4[nH]c5ccccc5c4CCN3C[C@@H]2CC[C@@H]1O` [yohimbine, Yohimbine hydrochloride], which “block of agonist-evoked fluorescence increase” value [2] is on record?
A: The value was “blocked”.

Q: What about the “block of electrically evoked fluorescence increase” value ([2]; stimuli at 20 Hz for 1 s) of the same compound?
A: Its value is “blocked”.

Q: And the “effect on GRABNE1m peak fluorescence during tail suspension” value [6]?
A: The value was “decreased”.

Q: What about the “effect on time to return to baseline” value [6] of the same compound?
A: The value was “significantly accelerated the return to baseline”.

Q: And the “block of NE-induced fluorescence increase” value [16]?
A: Its value is “blocked completely”.

Q: And the “block of NE-induced fluorescence increase” value ([10]; 50 μM antagonist after 50 μM NE)?
A: The value was “blocked completely”.

Q: What about the “effect on basal GRABNE1m fluorescence” value [7] of the same compound?
A: Its value is “abolished”.

Q: And the “effect on light-evoked GRABNE1m responses” value [7]?
A: Its value is “abolished”.

Q: And the “block of uncaging-induced fluorescence increase” value [17]?
A: The value was “blocked”.

Q: And the “block of GRABNE1m response to applied NE” value ([18]; 50 μM NE, 20 μM yohimbine, Fig. 4H)?
A: The value was “abolished”.

Q: What about the “effect on stimulation-induced fluorescence response” value ([18]; 20 pulses at 20 Hz, 4-AP 100 μM, Cd2+ 100 μM, desipramine 10 μM, yohimbine 20 μM) of the same compound?
A: The value was “blocked the response”.

Q: What about the “block of NE-induced fluorescence increase” value ([5]; GRABNE-expressing HEK293T cells) of the same compound?
A: The value was “blocked”.

Q: What about the “effect on looming-induced increase in GRABNE1m fluorescence” value [8] of the same compound?
A: Its value is “blocked”.

Q: Which “effect on NE-induced fluorescence change” value ([4]; inhibiting G protein activation) does the source give for pertussis toxin here?
A: Its value is “did not affect”.

Q: And the “effect on NE-induced fluorescence response” value ([11]; blocking G protein activation)?
A: The value was “had no effect”.

Q: And the “effect on NE-induced fluorescence response” value ([14]; HEK293T cells, blocking G protein activation)?
A: The value was “had no effect”.
